Laboratory results reported in patent US8673856B2 (Anygen Co., Ltd., priority 2006, dated 2014).

System: Sprague-Dawley male rats
Conditions: rat, in vivo

Row | Compound | 50% withdrawal threshold, mechanical stimulus
1 | CSCC[C@@H]1NC(=O)[C@H](CC(C)C)NC(=O)[C@H](CCCNC(=N)N)NC(=O)[C@H](CO)NC(=O)[C@@H]2CSSC[C@@H]3NC(=O)[C@H](CO)NC(=O)CNC(=O)[C@H]([C@@H](C)O)NC(=O)[C@H](CSSC[C@H](N)C(=O)N[C@@H](CCCCN)C(=O)NCC(=O)N[C@@H](CCCCN)C(=O)NCC(=O)N[C@@H](C)C(=O)N[C@@H](CCCCN)C(=O)N2)NC(=O)[C@H](CSSC[C@@H](C(N)=O)NC(=O)[C@H](CCCCN)NC(=O)CNC(=O)[C@H](CO)NC(=O)[C@H](CCCNC(=N)N)NC3=O)NC(=O)[C@H](CC(=O)O)NC(=O)[C@H](Cc2ccc(O)cc2)NC1=O [MVIIA, CKGKGAKCSRLMYDCCTGSCRSGKC-NH2] | increase in 50% withdrawal threshold
2 | CC[C@H](C)[C@@H]1NC(=O)[C@H](CCCNC(=N)N)NC(=O)[C@H](CO)NC(=O)[C@@H]2CSSC[C@@H]3NC(=O)[C@H](CO)NC(=O)CNC(=O)[C@H]([C@@H](C)O)NC(=O)[C@H](CSSC[C@H](N)C(=O)N[C@@H](CCCCN)C(=O)NCC(=O)N[C@@H]([C@@H](C)O)C(=O)NCC(=O)N[C@@H](CCCCN)C(=O)N[C@@H](CO)C(=O)N2)NC(=O)[C@H](CSSC[C@@H](C(N)=O)NC(=O)[C@H](CCCCN)NC(=O)CNC(=O)[C@H](CO)NC(=O)[C@H](CCCNC(=N)N)NC3=O)NC(=O)[C@H](CC(N)=O)NC(=O)[C@H](Cc2ccc(O)cc2)NC(=O)[C@H](C)NC1=O [FVIA, CKGTGKSCSRIAYNCCTGSCRSGKC-NH2] | increase in 50% withdrawal threshold
